Read-outs that look alike come from different tables or passages of the source.
Test system: Apis mellifera
Type: in vivo
From the text: Der Test wurde gemäß EPPO (European Plant Protection Organisation) Leitlinie 170 wie folgt durchgeführt:
Die Mortalität von Arbeiterbienen vor dem Bienenstock wird mittels einer Falle für tote Bienen (dead bee trap) bestimmt. Die Falle besteht aus Maschendraht und ist vor dem Bienenstock angebracht. Einzelne, lebende Bienen können die Maschen des Drahts passieren, der Transport toter Bienen durch die Maschen ist nicht möglich, weswegen tote Bienen sich in der Falle ansammeln. Tabelle 1 (siehe auch Figur 1)

O=C1C=C(N(Cc2ccc(Cl)nc2)CC(F)F)CO1 [I-5, 4-{[(6-Chlorpyrid-3-yl)methyl](2,2-difluorethyl)amino}furan-2(5H)-on]
Zahl toter Arbeiterbienen (75 g a.s./ha, 0 DAA b (15:15 Uhr)): 0 | Zahl toter Arbeiterbienen (75 g a.s./ha, 0 DAA c (17:15 Uhr)): 0,7 | Zahl toter Arbeiterbienen (75 g a.s./ha, 1 DAA): 0 | Zahl toter Arbeiterbienen (75 g a.s./ha, 2 DAA): 0,3 | Zahl toter Arbeiterbienen (75 g a.s./ha, 3 DAA): 0,3 | Zahl toter Arbeiterbienen (75 g a.s./ha, 4 DAA): 3,7 | Zahl toter Arbeiterbienen (75 g a.s./ha, 5 DAA): 0,3 | Zahl toter Arbeiterbienen (75 g a.s./ha, 6 DAA): 4,3 | Zahl toter Arbeiterbienen (75 g a.s./ha, 11 DAA): 0 | Zahl toter Arbeiterbienen (75 g a.s./ha, -3 DAA (before application)): 0,3 | Zahl toter Arbeiterbienen (150 g a.s./ha, 0 DAA b (15:15 Uhr)): 1,3 | Zahl toter Arbeiterbienen (150 g a.s./ha, 0 DAA c (17:15 Uhr)): 0,3 | Zahl toter Arbeiterbienen (150 g a.s./ha, 1 DAA): 0 | Zahl toter Arbeiterbienen (150 g a.s./ha, 2 DAA): 0 | Zahl toter Arbeiterbienen (150 g a.s./ha, 3 DAA): 0 | Zahl toter Arbeiterbienen (150 g a.s./ha, 4 DAA): 1,7 | Zahl toter Arbeiterbienen (150 g a.s./ha, 5 DAA): 0,7 | Zahl toter Arbeiterbienen (150 g a.s./ha, 6 DAA): 2 | Zahl toter Arbeiterbienen (150 g a.s./ha, 11 DAA): 1,7 | Zahl toter Arbeiterbienen (150 g a.s./ha, -3 DAA (before application)): 0,3 | Mortalität von Arbeiterbienen vor dem Bienenstock (result in words, tunnel test, spray, I-5 75 und 150 g a.s./ha, Thiamethoxam 50 g a.s./ha): keine Mortalität

— EP2193713A1, “Method for fighting animal pests without damaging pollinating insects” (Bayer CropScience AG, priority 2008, dated 2010)
